The test system of data set [1] is Liver microsome. Nature of the data set: Drug level in human liver microsomes assessed as compound formation treated with 10 uM ticlopidine for 60 mins by HPLC-MS analysis in presence of NADPH. The following applies: 1 h. It counts as ADME. In general terms: Liver microsomes are vesicles of endoplasmic reticulum, rich in cytochrome P450 enzymes.
Data set [2] has as its target T1, Cytochrome P450 2B6 (Homo sapiens, UniProt P20813).
T1 sequence (P20813 whole entry): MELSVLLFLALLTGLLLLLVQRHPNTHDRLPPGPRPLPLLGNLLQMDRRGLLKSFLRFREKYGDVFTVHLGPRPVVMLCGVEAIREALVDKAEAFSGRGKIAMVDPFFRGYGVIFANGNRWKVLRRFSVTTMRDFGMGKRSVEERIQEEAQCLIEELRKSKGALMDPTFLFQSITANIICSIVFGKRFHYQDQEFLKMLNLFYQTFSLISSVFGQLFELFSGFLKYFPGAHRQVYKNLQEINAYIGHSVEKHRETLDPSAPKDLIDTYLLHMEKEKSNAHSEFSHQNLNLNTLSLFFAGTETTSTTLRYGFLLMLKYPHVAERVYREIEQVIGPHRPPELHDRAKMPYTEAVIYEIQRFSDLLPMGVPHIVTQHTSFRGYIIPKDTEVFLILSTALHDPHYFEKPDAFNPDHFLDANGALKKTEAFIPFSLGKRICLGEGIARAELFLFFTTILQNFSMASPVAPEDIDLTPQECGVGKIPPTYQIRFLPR
Briefly: Activity of recombinant full-length CYP2B6 (unknown origin) expressed in baculovirus-infected insect cells assessed as enzyme-mediated compound formation treated with 10 uM ticlopidine for 60 mins by HPLC-MS analysis in presence of NADPH. It is filed as ADME. The following applies: 1 h.

Data set [3] has as its target T1, Cytochrome P450 2B6. Nature of the data set: Activity of human CYP2B6 assessed as observed rate constant for enzyme-mediated compound formation treated with 1 uM ticlopidine by HPLC-MS analysis in presence of NADPH. It counts as ADME.
For data set [4], the target named is T2, Cytochrome P450 2B4 (Oryctolagus cuniculus, UniProt P00178).
T2 sequence (P00178 whole entry): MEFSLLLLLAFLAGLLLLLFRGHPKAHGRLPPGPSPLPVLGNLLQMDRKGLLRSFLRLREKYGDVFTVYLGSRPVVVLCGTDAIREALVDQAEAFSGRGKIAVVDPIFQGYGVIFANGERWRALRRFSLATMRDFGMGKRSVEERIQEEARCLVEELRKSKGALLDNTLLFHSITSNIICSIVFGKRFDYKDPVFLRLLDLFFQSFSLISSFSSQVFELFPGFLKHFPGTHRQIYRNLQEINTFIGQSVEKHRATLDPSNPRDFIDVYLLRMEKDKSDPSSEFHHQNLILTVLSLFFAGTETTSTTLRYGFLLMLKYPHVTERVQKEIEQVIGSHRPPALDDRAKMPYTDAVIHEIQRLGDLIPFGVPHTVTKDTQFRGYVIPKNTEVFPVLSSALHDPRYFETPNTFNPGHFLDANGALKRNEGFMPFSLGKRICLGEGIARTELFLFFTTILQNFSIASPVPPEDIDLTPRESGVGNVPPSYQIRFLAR
Nature of the data set: Activity of rabbit CYP2B4 assessed as observed rate constant for enzyme-mediated compound formation treated with 1 uM ticlopidine by HPLC-MS analysis in presence of NADPH. It counts as ADME.

A short description of data set [5]: Retention time of the compound by HPLC-MS analysis. It is filed as physicochemical.
Data set [6] addresses T1, Cytochrome P450 2B6. Briefly: Activity of human CYP2B6 assessed as enzyme-mediated compound formation treated with 10 uM ticlopidine for 60 mins by HPLC-MS analysis in presence of NADPH. The settings on record: 1 h. It is filed as ADME.
The target of data set [7] is T2, Cytochrome P450 2B4. Briefly: Activity of rabbit CYP2B4 assessed as enzyme-mediated compound formation treated with 10 uM ticlopidine for 60 mins by HPLC-MS analysis in presence of NADPH. The settings on record: 1 h. It counts as ADME.
Data set [8] concerns the target T3, CYP2B6 (Homo sapiens, UniProt P20813).
T3 sequence (P20813 whole entry): T1 sequence (P20813 whole entry)
Nature of the data set: Inhibition of human CYP2B6 assessed as inactivation rate constant at 100 uM for 2 mins by HPLC-MS analysis in presence of NADPH. It is filed as ADME.

Data set [9] deals with T4, CYP2B4 (Oryctolagus cuniculus, UniProt P00178).
T4 sequence (P00178 whole entry): T2 sequence (P00178 whole entry)
Briefly: Inhibition of rabbit CYP2B4 assessed as inactivation rate constant at 100 uM for 2 mins by HPLC-MS analysis in presence of NADPH. It is filed as ADME.

Consider seven compounds from ChEMBL document CHEMBL3525941, “Comparison of in vitro metabolism of ticlopidine by human cytochrome P450 2B6 and rabbit cytochrome P450 2B4” (Drug Metab Dispos, 2011).

Consider `OC1CN(Cc2ccccc2Cl)Cc2ccsc21` (stereo not given), for which the Compound recovery result in data set [1], in [2], in data set [6] and in data set [7] was “metabolite_detected” throughout. Besides, the kobs in data set [3] worked out at 0.48 min⁻¹; in data set [4] it was 0.49 min⁻¹. The compound further showed a Retention_time in [5] of 4.56 min.
Turning to `O=C1C=C2CN(Cc3ccccc3Cl)CCC2S1` (stereo not given), the Compound recovery result in data set [1], in [2], in [6] and in [7] was “metabolite_detected” each time. For the same compound, the kobs in [3] stood at 0.5 min⁻¹; in data set [4] it was 0.48 min⁻¹. This compound returned a Retention_time in data set [5] of 4.9 min.
With `Clc1ccccc1C[N+]1=Cc2ccsc2CC1`, the Compound recovery entry in [1], in data set [2], in [6] and in data set [7] was “metabolite_detected” in each case.
As to `Clc1ccccc1C[n+]1ccc2sccc2c1`, the Compound recovery entry in [1], in data set [2], in data set [6] and in data set [7] was “metabolite_detected” each time. Further, the kobs in data set [4] amounted to 0.56 min⁻¹.
For `[O-][N+]1(Cc2ccccc2Cl)CCc2sccc2C1` (stereo not given), the Compound recovery result in data set [1], in data set [2], in data set [6] and in data set [7] was “metabolite_detected” each time. The results for the kobs in [3] and in [4] were 0.61 min⁻¹ and 0.66 min⁻¹, respectively. The same compound registered a Retention_time in data set [5] of 8 min.
By kinact is commonly meant the maximal first-order rate at which the target is inactivated. For `CCOc1ccc2c(C(F)(F)F)cc(=O)oc2c1`, the kinact at 2 min, 100 µM in [8] is 0.00167 s⁻¹; in data set [9], 0.000333 s⁻¹.
Consider `CC(NC(C)(C)C)C(=O)c1cccc(Cl)c1` (stereo not given) [BUPROPION], for which the inactivation rate constant (kinact) at 2 min, 100 µM in data set [8] is 0.00533 s⁻¹; in data set [9], 0.00133 s⁻¹. The compound also returned a Retention_time in [5] of 9.7 min.
